The conditions of data set [1]: en solution aqueuse, en dessous d'un pH de 6,8; cited from earlier work.
Data set [2] is described as follows: ATR-FTIR spectroscopy of the effect on artificial mixed lipid bilayer membranes (phase transition). To be noted: DPPC/DPPS 85/15 membranes. From the text:
(§1) L'effet, sur les bicouches lipidiques qui constituent les membranes biologiques, d'un complexe suivant l'invention renfermant de l'acide orthosilicique et de la vanilline, a été étudié par spectroscopie ATR-FTIR. Des membranes artificielles formées de DPPC (1,2 dipalmitoyl-sn-glycéro-3-phosphatydilcholine) ou d'un mélange 85/15 de DPPC/DPPS (1,2 dipalmitoyl-sn-glycéro-3-phosphatydilsérine) ont été utilisées. Les membranes présentent des transitions de phase à des températures caractéristiques (Tc à 41 °C et 53°C pour le DPPC et le DPPS respectivement). […] Les résultats tendent à montrer que le complexe s'insère dans la bicouche lipidique et de ce fait diminue les interactions entre les lipides. […] Il se produit une séparation de phase et le mélange lipidique n'est plus homogène. Ceci suggère que le composé aromatique stabilisant l'acide orthosilicique a une affinité plus grande pour un des deux lipides ce qui provoque une ségrégation spatiale des composants de la membrane.

Data set [3] is described as follows: ATR-FTIR spectroscopy of the effect on artificial lipid bilayer membranes (phase transition). Conditions: DPPC membranes.
Source text: as §1

Results on two substances are retold here after EP2526954A1, “Bioavailable silicon complex, method for preparing same and use thereof” (Dexsil Labs, priority 2011, dated 2012).

For complexe de silicium-catéchol, the dissociation du complexe result in data set [1] was “complètement dissocié”. Consider “complexe stabilisé d'acide orthosilicique et de 4-hydroxy-3-méthoxybenzaldéhyde (vanilline) [Exemple 1]”, for which the “effet sur le mélange lipidique” value in data set [2] is “induit une démixtion des deux lipides”. Further, the “effet sur la transition de phase des lipides” value in data set [3] was “diminue l'énergie requise pour que les lipides participent à la transition de phase”.
